From patent US20220395458A1, “PREVENTION OF VISIBLE PARTICLE FORMATION IN AQUEOUS PROTEIN SOLUTIONS” (Hoffmann-La Roche Inc., priority 2019, published 2022)
Converted amounts (≈) assume the structure as drawn.

Columns and labels:
[1] = in water at room temperature; cited from earlier work
[2] = Particle identification by FTIR; assay type: physicochemical; conditions: particle identification d1
Procedure: Particles >20 μm were further identified by Fourier transformed infrared spectroscopy (FTTIR) using a Nicolet™ iNTM10 Infrared Microscope (Thermo Fisher Scientific) by comparison to reference spectra. Samples were filtrated under laminar air flow through gold-coated polycarbonate filters (pore size 0.8 μm, diameter 13 mm, Sterlitech). Filter conditioning included few droplets of ethanol followed by 1 mL of particle-free water. After filtration of the samples, ˜1 mL of cooled particle-free water was used as a final washing step before analysis.
(§1) pH of all solutions was verified. Samples were visually inspected immediately after spiking and regularly for up to 7 days. Further characterization by HIAC, turbidity, FTIR, and SEM-EDX was performed on day 1 only. All samples were analyzed when equilibrated to room temperature (4 h).
Glass leachables were generated from different types of glass vials, e.g. Exp33 and Exp51 vials, with different matrix solutions including WFI, a glycine solution adjusted to pH 6, and a placebo solution representative for a mAb formulation. Defined amounts of myristic and lauric acid below their solubility limit were added to the solutions/mixtures of glass leachables and analyzed. Visible particles in Seidenader are summarized in Table 3 and were detected for all samples in contrast to various controls. Particle formation was dependent on the glass leachable solution and dependent on incubation time. […] An example for the dependency of particle formation on incubation time is provided in Table 3 for myristic acid in glass leachable solution from Exp51 vials/glycine solution. The example highlights the kinetics of particle formation with no particles directly after spiking and more than 10 particles at incubation day 5 and 7. For selected samples, particles were further characterized and identified by FTIR confirming the presence of free fatty acids. FFA were not confirmed by FTIR for glass leachable solutions generated with WFI, which is linked to the time point of FTIR analysis at d1 and the late onset of particle formation for these samples. Placebo samples were not analyzed further by FTIR as the positive control was found negative attributed to the presence of additional 0.02% PS20, potentially solubilizing the FFA seeds. Characterization of the particles by SEM-EDX confirmed the presence of glass leachables, like Aluminium or silicon on the surface of the FFA particles. […] The spiking study highlights that mixtures of ‘real’ glass leachables lead to precipitation of FFA and particle formation in the visible range dependent on mixture and amount of glass leachables as well as dependent on incubation time, […]

[3] = Visible particles by Seidenader after spiking FFA to inorganic salt solutions; assay type: physicochemical; conditions: for Visible particles in Seidenader: dependent on salt concentration over time, much lesser extent than CaCl2 and NaAlO2; for Visible particles Seidenader d0 / Visible particles Seidenader d2 / Visible particles Seidenader d7 / Visible particles Seidenader d1: FFA below solubility limit; for Visible particles Seidenader d0: d0 directly after spiking
Procedure: Del.) at 100 rpm at 25° C., for 1 hour. […] FFA concentrations were verified for selected by LC-MS samples acc. Honemann et al.^7
[…] NaCl, NaAlO2. NaBO2. B2O3, and CaCl2 (Sigma-Aldrich/Merck. Darmstadt. Del.) were selected as their dissolution products (ions) represent typical glass leachables from Type I borosilicate glass. The pH of the NaAlO2 and NaBO2 stock solutions was adjusted to pH 6 using HCl and subsequently filtered using 0.22 μm PVDF Sterivex filters (Merck Millipore. Darmstadt. Del.) and true elemental concentrations were determined by inductively-coupled plasma mass spectrometry (ICP-MS). […] Spiking experiments with FFA were performed in duplicates.
Samples were analyzed by visual inspection on a Seidenader V 90-T instrument (Seidenader Maschinenbau GmbH. Markt Schwaben. Del.) as previously described by Ditter et al.^9 and using a black/white panel according Ph. Eur. 2.9.20.^10 and classified as Many particles (>7). Few particles (4-7), or Practically free of particles (0-4) in E/P box, and Many particles (>10). Few particles (6-10). Essentially free of particles (1-5), or Free of particles (0) by Seidenader.
as §1
Different inorganic salt solutions, i.e. CaCl2. NaAlO2. NaBO2. B2O3, and NaCl, were prepared simulating artificial glass leachables. Myristic and lauric acid, as main degradation product from hydrolytic PS20 degradation, were added at concentrations below their solubility limit and samples were analyzed for visible particles. SVP, and turbidity. Samples were compared against relevant controls and the pH verified at pH 6.

[4] = CaCl2 250 μg/mL (Ca2+ 90 μg/mL)
[5] = CaCl2 500 μg/mL (Ca2+ 180 μg/mL)
[6] = CaCl2 1000 μg/mL (Ca2+ 360 μg/mL)
[7] = NaAlO2 nominal 250 μg/mL (0.012 μg/mL ion)
[8] = NaAlO2 nominal 500 μg/mL (0.024 μg/mL ion)
[9] = NaAlO2 nominal 1000 μg/mL (0.048 μg/mL ion)

## CCCCCCCCCCCC(=O)O [Lauric acid, lauric acid]
[1]
  solubility level: 15 µg/mL (≈ 74.9 µM)
[2]; Exp33 vials, 3xTS WFI
  FTIR: FFA
[2]; Exp51 vials, 3xTS Glycine pH 6
  FTIR: FFA
[3]; B2O3 solution
  Visible particles in Seidenader: visible particles were obtained
[3]; [4]
  Visible particles Seidenader d0: / (Free of particles (0, /) by Seidenader)
  Visible particles Seidenader d2: xxx (Many particles (>10, xxx))
  Visible particles Seidenader d7: xxx (Many particles (>10, xxx))
[3]; [5]
  Visible particles Seidenader d0: / (Free of particles (0, /) by Seidenader)
  Visible particles Seidenader d2: xxx (Many particles (>10, xxx))
  Visible particles Seidenader d7: xxx (Many particles (>10, xxx))
[3]; [6]
  Visible particles Seidenader d2: xxx (Many particles (>10, xxx))
[3]; [7]
  Visible particles Seidenader d0: / (Free of particles (0, /) by Seidenader)
  Visible particles Seidenader d1: x (Essentially free of particles (1-5, x))
  Visible particles Seidenader d2: x (Essentially free of particles (1-5, x))
[3]; [8]
  Visible particles Seidenader d0: x (Essentially free of particles (1-5, x))
  Visible particles Seidenader d1: x (Essentially free of particles (1-5, x))
[3]; [9]
  Visible particles Seidenader d1: x (Essentially free of particles (1-5, x))
  Visible particles Seidenader d7: xxx (Many particles (>10, xxx))
[3]; NaBO2 solution
  Visible particles in Seidenader: visible particles were obtained

## CCCCCCCCCCCCCC(=O)O [Myristic acid, myristic acid]
[1]
  solubility level: 7 µg/mL (≈ 30.7 µM)
[2]; Exp33 vials, 3xTS Glycine pH 6
  FTIR: FFA
[2]; Exp51 vials, 3xTS Glycine pH 6
  FTIR: FFA
[3]; B2O3 solution
  Visible particles in Seidenader: visible particles were obtained
[3]; [4]
  Visible particles Seidenader d0: xxx (Many particles (>10, xxx))
  Visible particles Seidenader d1: xxx (Many particles (>10, xxx))
  Visible particles Seidenader d2: xxx (Many particles (>10, xxx))
  Visible particles Seidenader d7: xxx (Many particles (>10, xxx))
[3]; [5]
  Visible particles Seidenader d0: xxx (Many particles (>10, xxx))
  Visible particles Seidenader d1: xxx (Many particles (>10, xxx))
  Visible particles Seidenader d2: xxx (Many particles (>10, xxx))
  Visible particles Seidenader d7: xxx (Many particles (>10, xxx))
[3]; [6]
  Visible particles Seidenader d0: xxx (Many particles (>10, xxx))
  Visible particles Seidenader d1: xxx (Many particles (>10, xxx))
  Visible particles Seidenader d2: xxx (Many particles (>10, xxx))
  Visible particles Seidenader d7: xxx (Many particles (>10, xxx))
[3]; [7]
  Visible particles Seidenader d1: x (Essentially free of particles (1-5, x))
  Visible particles Seidenader d2: x (Essentially free of particles (1-5, x))
  Visible particles Seidenader d7: xxx (Many particles (>10, xxx))
[3]; [8]
  Visible particles Seidenader d2: x (Essentially free of particles (1-5, x))
  Visible particles Seidenader d7: xxx (Many particles (>10, xxx))
[3]; [9]
  Visible particles Seidenader d0: x (Essentially free of particles (1-5, x))
  Visible particles Seidenader d7: xxx (Many particles (>10, xxx))
[3]; NaBO2 solution
  Visible particles in Seidenader: visible particles were obtained
